Laboratory results from patent US20250145715A1, “B7-H3 TARGETING FUSION PROTEINS AND METHODS OF USE THEREOF” (GT Biopharma, Inc., priority 2021, published 2025).

Key:
Assay type in all cases: cell-based, human
[1] = tested on: U266 cells; assay: IncuCyte Zoom NK cell killing of U266; conditions: E:T 2:1 and 4:1
Source text: (§1) FIGS. 7A-7B illustrate the ability of peripheral blood NK cells with or without B7-H3-TriKE to kill myeloma cells in live imaging IncuCyte Zoom assays. FIG. 7A is a graph showing the effects with effector:target (E:T) ratios of 2:1 and 4:1 on MM1S cells. FIG. 7B is a graph showing the effects with effector:target (E:T) ratios of 2:1 and 4:1 on U266 cells.
as §1, with “8A-8D” for “7A-7B”, “8A is a graph showing the effects with effector:target (E:T) ratios of 2:1 and 4:1 on H929 cells. FIG. 8B” for “7A”, “8C is a graph showing the effects with effector:target (E:T) ratios of 2:1 and 4:1 on RPMI-8226 cells. FIG. 8D” for “7B”
FIGS. 9A-9D illustrate the efficacy of B7-H3-TriKE with the proteasome inhibitor bortezomib (10 nM) and the immunomodulatory drug lenalidomide (5 μM). FIG. 9A is a graph showing the effect of the combination therapy on H929 cells after 48 hours. FIG. 9B is a graph showing the effect of the combination therapy on RPMI-8226 cells after 48 hours. FIG. 9C is a graph showing the effect of the combination therapy on MM1S cells after 48 hours. […]

[2] = tested on: prostate cancer cells; assay: NK cell function against prostate cancer cells (flow cytometry)
Description: FIG. 13A is a graph showing percent of NK cells expressing IFNγ against prostate cancer cell targets. FIG. 13B is a graph illustrating the proportion of NK cells undergoing 3 or more rounds of division.
ADCC was measured in a flow cytometry assay by evaluating degranulation via CD107a (lysosomal-associated membrane protein LAMP-1) and intracellular IFNγ production. Upon thawing, normal donor and patient-derived PBMCs or ascites cells were rested overnight (37° C., 5% CO2) in RPMI 1640 media supplemented with 10% fetal calf serum (RPMI-10). The next morning, they were suspended with tumor-target cells or media after washing twice with RPMI-10. Cells were then incubated with TriKEs or controls for 10 min at 37° C. Fluorescein isothiocyate (FITC)-conjugated anti-human CD107a monoclonal antibody (BD Biosciences, San Jose, CA, USA) was then added. Following an hour 37° C. incubation, GolgiStop (1:1500, BD Biosciences) and GolgiPlug (1:1000, BD Biosciences) were added for 3 h. After washing with phosphate buffered saline, the cells were stained with PE/Cy 7-conjugated anti-CD56 mAb, APC/Cy 7-conjugated anti-CD16 mAb, and PE-CF594-conjugated anti-CD3 mAb (BioLegend, San Diego, CA, USA). Cells were incubated for 15 min at 4° C., washed, and fixed with 2% paraformaldehyde. Cells were then permeabilized using an intracellular perm buffer (BioLegend) to evaluate production of IFNγ through detection via aBV650 conjugated anti-human IFNγ antibody (BioLegend). Samples were washed and evaluated in an LSRII flow cytometer (BD Biosciences, San Jose, CA, USA).
As illustrated in FIGS. 12A-12D, 14A-14L and 15A-15D cam1615B7-H3 TriKE targets prostate cancer. The ability of the cam1615B7-H3 TriKE to improve NK cell activity against prostate cancer was tested. All of the prostate cancer cell lines tested expressed B7-H3. For these tests, normal donor PBMCs and PBMCs obtained from metastatic prostate cancer patients were used.

[3] = tested on: OVCAR5 ovarian cancer cells; assay: NK cell CD107a / IFNγ flow cytometry against OVCAR5; conditions: 30 nM, E:T 2:1, 4 hrs; vs no treatment and rhIL-15 alone
Description: Healthy donor or ovarian cancer PBMC cells were incubated with ovarian tumor targets at 2:1 E:T ratio for 4 hrs with 30 nM TriKE or control condition. FIG. 30A is a graph illustrating pooled proportion of NK cells from healthy donors expressing CD107a+ (degranulation) against OVCAR8 targets (N=8). FIG. 30B is a graph illustrating pooled proportion of NK cells from healthy donors expressing IFNγ cytokine production against OVCAR8 targets (N=8). FIG. 30C is a graph illustrating pooled proportion of NK cells from healthy donors expressing CD107a+ (degranulation) against OVCAR3 targets (N=4). […] FIG. 30I is a graph illustrating that tumor killing was evaluated using IncuCyte imaging assay. […] The percentage of Live (Nuclight Red+Caspase 3/7−) tumor cells was quantified over a 48-h period and normalized to tumor alone. Readings were obtained every 15 min (representative of four separate experiments). * p<0.05, ** p<0.01, *** p<0.001, and **** p<0.0001.
ADCC was measured in a flow cytometry assay by evaluating degranulation via CD107a (lysosomal-associated membrane protein LAMP-1) and intracellular IFNγ production. […] Samples were washed and evaluated in an LSRII flow cytometer (BD Biosciences, San Jose, CA, USA).
The ability of cam1615B7-H3 TriKE to mediate NK cell activity against ovarian cancer cells was evaluated. […]

Substance	NK cell killing of U266 [1]	NK function (IFNγ) against prostate cancer cell targets vs IL-15 alone ([2]; compared to IL-15 alone)	B7-H3 specificity of the signal ([2]; with prostate cancer cells)	TriKE-induced signal vs natural cytotoxicity signal ([2]; with prostate cancer cells)	NK cell degranulation against OVCAR5 [3]	NK cell intracellular IFNγ production against OVCAR5 [3]
B7-H3 TriKE: camelid nanobodies targeting CD16 and B7-H3 joined by IL-15 and two linkers; sequence table equates the name with cam1615B7-H3	significantly enhanced killing	–	–	–	–	–
cam1615B7-H3: second-generation TriKE: humanized camelid anti-CD16 VHH, human wild-type IL-15, anti-B7-H3 mAb 376.96 scFv; SEQ ID NO:1	–	more potent at inducing NK function than IL-15 alone	specific to B7-H3	stronger than that induced by a strong natural cytotoxicity signal	robust	robust
